According to PMC8230315, “A Pan-Inhibitor for Protein Arginine Methyltransferase Family Enzymes” (Biomolecules, 2021):

Legend:
[1] = system: histone H4 Arg3 asymmetric dimethylation (H4R3me2a); assay: Cellular arginine methylation assay, Western blot in HEK293 cells; assay type: cell-based; details: 48 h, at 10 µM
Experimental: Furthermore, we proceeded to investigate the inhibitory effects of II757 on the methylation level of histone H4 Arg3 via Western blotting to check its cellular inhibition. […] Future studies will focus on tethering this moiety with reported substrate-competitive inhibitors to enhance the selectivity and cellular potency.
HEK293 cell line was cultured in DMEM media supplemented with 10% FBS and 1% antibiotic-antimycotic (Gibco, Fisher, Waltham, MA, USA). The cells were maintained in a tissue culture dish (Falcon 353003, Fisher, Waltham, MA, USA) until seeding at a density of 0.03 × 10^6 cells/mL into a 24-well tissue culture plate (Falcon 353047, Fisher, Waltham, MA, USA). The cells were incubated overnight at 37 °C in 5% CO2 with the lid on. They were then treated with the inhibitors at different concentrations for 48 h. […]
The protein was quantified using BCA (Pierce BCA Protein Assay Kit, 23225, Fisher, Waltham, MA, USA) and equal amounts of protein were resolved by SDS-PAGE electrophoresis and blotted on Transfer membrane (Immun-Blot PVDF Membranes, Bio-Rad, Hercules, CA, USA Bio-Rad, 1620177). […] The membranes were washed three times with 1X TBST for 5 min each, and the proteins were detected by ECL (Bio-Rad, Hercules, CA, USA).

PRMT4 = target: T1, PRMT4 (Homo sapiens, UniProt Q86X55); assay: HotSpot radioisotope 3H-AdoMet methyltransferase assay, PRMT4; assay type: biochemical; details: IC50 (nM) PRMT4, 10 doses, threefold serial dilution
T1 construct: purchased Reaction Biology
T1 sequence (Q86X55 1-608): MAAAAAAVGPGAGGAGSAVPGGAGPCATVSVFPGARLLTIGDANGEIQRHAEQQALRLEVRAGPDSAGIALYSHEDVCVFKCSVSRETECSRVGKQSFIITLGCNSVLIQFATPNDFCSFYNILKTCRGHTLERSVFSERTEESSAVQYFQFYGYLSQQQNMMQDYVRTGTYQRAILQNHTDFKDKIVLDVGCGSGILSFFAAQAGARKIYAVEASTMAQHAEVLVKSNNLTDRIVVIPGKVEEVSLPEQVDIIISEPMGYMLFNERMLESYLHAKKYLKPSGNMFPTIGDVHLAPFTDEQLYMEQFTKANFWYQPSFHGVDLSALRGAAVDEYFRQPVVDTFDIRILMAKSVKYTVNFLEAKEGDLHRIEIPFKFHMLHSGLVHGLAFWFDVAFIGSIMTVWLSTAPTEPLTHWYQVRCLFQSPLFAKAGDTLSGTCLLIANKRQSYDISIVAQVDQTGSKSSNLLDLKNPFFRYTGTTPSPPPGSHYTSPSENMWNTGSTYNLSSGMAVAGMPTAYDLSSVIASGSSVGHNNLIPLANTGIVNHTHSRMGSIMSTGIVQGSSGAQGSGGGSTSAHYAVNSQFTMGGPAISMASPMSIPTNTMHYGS
Experimental: Future studies will focus on obtaining structural information of II757 bound to PRMTs to inform how to connect to a substrate portion to increase both potency and selectivity for each PRMT.
Figure 6 Selectivity of II757 against the panel of PRMTs. II757 was tested in 10 doses with threefold serial dilution in the HotSpot methyltransferase assay at reaction biology. TEXT PRINTED IN THE PICTURE: II757: IC50 (nM) PRMT1: 16.4; IC50 (nM) PRMT3: 321; IC50 (nM) PRMT4: 5.05; IC50 (nM) PRMT5/MEP50 Complex: 18.2; IC50 (nM) PRMT5 (C449S)/MEP50: 36.6; IC50 (nM) PRMT6: 30.5; IC50 (nM) PRMT7: 555; IC50 (nM) PRMT8: 32.1

Q: `N=C(NCCCSC[C@H]1O[C@@H](n2cnc3c(N)ncnc32)[C@H](O)[C@@H]1O)Nc1cccc(Br)c1` [Compound 6l, 1-(3-((((2S,3S,4R,5R)-5-(6-amino-9H-purin-9-yl)-3,4-dihydroxytetrahydrofuran-2-yl)methyl)thio)propyl)-3-(3-bromophenyl)guanidine] was tested. Which H4R3me2a level [1] did it give?
A: decrease

Q: And the IC50 (PRMT4)?
A: 5 nM
